The molecules below were run against T1, MerTK (Homo sapiens, UniProt Q12866) (assay: PAKT HTRF-HUVEC assay (pAkt Ser473 HTRF after anti-human MerTK-XL stimulation)). Details: HUVEC cells, 1 hour compound, stimulated with anti-human MerTK-XL 1 ug/mL for 10 minutes, read-out: inhibition of MerTK.
T1 construct: Seed HUVECs (10K cells/well) in EBM-2 complete media; host or cells: HUVEC (primary human umbilical vein endothelial cells)
T1 sequence (Q12866 21-999): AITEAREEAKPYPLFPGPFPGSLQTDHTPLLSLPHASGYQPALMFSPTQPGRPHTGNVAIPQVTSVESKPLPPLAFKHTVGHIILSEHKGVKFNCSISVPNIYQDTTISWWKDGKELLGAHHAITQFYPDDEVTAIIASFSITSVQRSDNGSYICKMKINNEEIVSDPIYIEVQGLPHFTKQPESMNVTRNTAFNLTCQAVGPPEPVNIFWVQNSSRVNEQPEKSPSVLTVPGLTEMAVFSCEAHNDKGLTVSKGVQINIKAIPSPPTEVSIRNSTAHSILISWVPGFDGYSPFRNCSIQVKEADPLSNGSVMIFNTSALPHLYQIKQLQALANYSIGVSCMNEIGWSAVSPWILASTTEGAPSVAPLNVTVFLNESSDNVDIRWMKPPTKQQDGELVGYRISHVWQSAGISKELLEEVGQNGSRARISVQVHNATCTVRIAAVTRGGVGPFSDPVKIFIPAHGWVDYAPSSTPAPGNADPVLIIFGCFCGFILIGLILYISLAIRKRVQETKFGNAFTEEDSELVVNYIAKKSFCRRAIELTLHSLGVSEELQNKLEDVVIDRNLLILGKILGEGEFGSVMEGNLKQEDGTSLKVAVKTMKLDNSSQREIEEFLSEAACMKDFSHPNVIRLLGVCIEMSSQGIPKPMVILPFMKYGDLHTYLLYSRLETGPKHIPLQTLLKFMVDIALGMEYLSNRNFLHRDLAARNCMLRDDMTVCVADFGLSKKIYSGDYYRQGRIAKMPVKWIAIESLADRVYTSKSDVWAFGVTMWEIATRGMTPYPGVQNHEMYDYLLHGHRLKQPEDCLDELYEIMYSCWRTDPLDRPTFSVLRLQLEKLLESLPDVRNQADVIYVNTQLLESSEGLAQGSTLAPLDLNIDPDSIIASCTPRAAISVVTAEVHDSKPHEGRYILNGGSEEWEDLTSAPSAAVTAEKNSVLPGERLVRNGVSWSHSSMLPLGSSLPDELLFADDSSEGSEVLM
Assay type: cell-based
In short: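 HUVECs starved 3-4 h in basal medium, preincubated with compound 1 h at 37° C, then stimulated 10 min with cross-linked anti-human MerTK antibody (final 1 ug/mL). Lysates read for pAkt (Ser473) by HTRF; EC50 from curve fitting.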

| Compound | EC50 [nM] |
| --- | --- |
| CCC1(CNc2ncc3c4ccccc4c(=O)n([C@H]4CC[C@H](O)CC4)c3n2)CCC1 [Compound 116, trans-3-(((1-Ethylcyclobutyl)methyl)amino)-5-(4-hydroxycyclohexyl)pyrimido [4,5-c]isoquinolin-6(5H)-one] | 4620 |
| O=c1c2ccccc2c2cnc(NCC3CCC3)nc2n1[C@H]1CC[C@H](O)CC1 [Compound 117, trans-3-((Cyclobutylmethyl)amino)-5-(4-hydroxycyclohexyl)pyrimido [4,5-c]isoquinolin-6(5H)-one] | 326 |
| CCC(F)(F)CNc1ncc2c3ccccc3c(=O)n([C@H]3CC[C@H](O)CC3)c2n1 [Compound 119, trans-3-((2,2-difluorobutyl)amino)-5-(4-hydroxycyclohexyl)pyrimido [4,5-c]isoquinolin-6(5H)-one] | 15800 |
| O=c1c2ccccc2c2cnc(NCCC3CC3)nc2n1[C@H]1CC[C@H](O)CC1 [Compound 120, trans-3-((2-Cyclopropylethyl)amino)-5-(4-hydroxycyclohexyl)pyrimido [4,5-c]isoquinolin-6(5H)-one] | 352 |
| CC1(O)CCC(n2c(=O)c3ccccc3c3cnc(NCC4CC4)nc32)CC1 (stereo not drawn) [Compound 121, trans-3-((Cyclopropylmethyl)amino)-5-(4-hydroxy-4-methylcyclohexyl)pyrimido[4,5-c]isoquinolin-6(5H)-one] | 620 |
| C[C@]1(O)CC[C@H](n2c(=O)c3ccccc3c3cnc(NCCC4CC4)nc32)CC1 [Compound 122, trans-3-((2-Cyclopropylethyl)amino)-5-(4-hydroxy-4-methylcyclohexyl)pyrimido [4,5-c]isoquinolin-6(5H)-one] | 165 |
| C[C@]1(O)CC[C@H](n2c(=O)c3ccccc3c3cnc(NCC4CCC4)nc32)CC1 [Compound 123, trans-3-((Cyclobutylmethyl)amino)-5-(4-hydroxy-4-methylcyclohexyl)pyrimido [4,5-c]isoquinolin-6(5H)-one] | 76.5 |
| O=c1c2cc(CN3CCN(c4ccncc4)CC3)ccc2c2cnc(NCC3CC3)nc2n1[C@H]1CC[C@H](O)CC1 [Compound 124, trans-3-((Cyclopropylmethyl)amino)-5-(4-hydroxycyclohexyl)-8-((4-(pyridin-4-yl)piperazin-1-yl)methyl)pyrimido[4,5-c]isoquinolin-6(5H)-one] | 36.2 |
| CCCCNc1ncc2c3ccc(CN4CCN(C)CC4)cc3c(=O)n([C@H]3CCC[C@H](O)CCC3)c2n1 [Compound 127, 3-(Butylamino)-5-((1r,5r)-5-hydroxycyclooctyl)-8-((4-methylpiperazin-1-yl)methyl)pyrimido[4,5-c]isoquinolin-6(5H)-one] | 89.1 |
| CCCCNc1ncc2c3ccc(CN4CCN(C)CC4)cc3c(=O)n([C@H]3CC[C@H](C#N)CC3)c2n1 [Compound 128] | 126 |
| CC(C)CCNc1ncc2c3ccc(CN4CCN(C)CC4)cc3c(=O)n([C@H]3CC[C@H](O)CC3)c2n1 [Compound 129] | 45.9 |
| CC(C)CNc1ncc2c3ccc(CN4CCN(C)CC4)cc3c(=O)n([C@H]3CC[C@H](O)CC3)c2n1 [Compound 130, trans-5-(4-hydroxycyclohexyl)-3-(isobutylamino)-8-((4-methylpiperazin-1-yl)methyl)pyrimido[4,5-c]isoquinolin-6(5H)-one] | 51.2 |
| CCCCNc1ncc2c3ccc(CN4CCN(C)CC4)cc3c(=O)n([C@H]3CC[C@H](C(N)=O)CC3)c2n1 [Compound 131, trans-4-(3-(Butylamino)-8-((4-methylpiperazin-1-yl)methyl)-6-oxopyrimido[4,5-c]isoquinolin-5(6H)-yl)cyclohexane-1-carboxamide] | 54.6 |
| CCCCNc1ncc2c3ccc(CN4CCN(C)CC4)cc3c(=O)n([C@H]3CC[C@H](C(=O)O)CC3)c2n1 [Compound 132, trans-4-(3-(Butylamino)-8-((4-methylpiperazin-1-yl)methyl)-6-oxopyrimido[4,5-c]isoquinolin-5(6H)-yl)cyclohexane-1-carboxylic Acid] | 1550 |
| CN1CCN(Cc2ccc3c(c2)c(=O)n(C2CCOCC2)c2nc(NCC4CC4)ncc32)CC1 [Compound 133] | 1670 |
| CN1CCN(Cc2ccc3c(c2)c(=O)n([C@H]2CC[C@H](C(N)=O)CC2)c2nc(NCC4CC4)ncc32)CC1 [Compound 134, trans-4-(3-((Cyclopropylmethyl)amino)-8-((4-methylpiperazin-1-yl)methyl)-6-oxopyrimido[4,5-c]isoquinolin-5(6H)-yl)cyclohexane-1-carboxamide] | 347 |
| CN1CCN(Cc2ccc3c(c2)c(=O)n([C@H]2CC[C@H](C(=O)O)CC2)c2nc(NCC4CC4)ncc32)CC1 [Compound 135, trans-4-(3-((Cyclopropylmethyl)amino)-8-((4-methylpiperazin-1-yl)methyl)-6-oxopyrimido[4,5-c]isoquinolin-5(6H)-yl)cyclohexane-1-carboxylic Acid] | 4040 |
| CN1CCC(n2c(=O)c3cc(CN4CCN(C)CC4)ccc3c3cnc(NCC4CC4)nc32)CC1 [Compound 136] | 320 |
| CN1CCN(Cc2ccc3c(c2)c(=O)n([C@H]2CC[C@H](O)CC2)c2nc(NC4CCC4)ncc32)CC1 [Compound 137, trans-3-(cyclobutylamino)-5-(4-hydroxycyclohexyl)-8-((4-methylpiperazin-1-yl)methyl)pyrimido[4,5-c]isoquinolin-6(5H)-one] | 19.6 |
| CCCCNc1ncc2c3ccc(CN4CCN(C)CC4)cc3c(=O)n([C@H]3CC[C@H](C(=O)NC)CC3)c2n1 [Compound 138, trans-4-(3-(Butylamino)-8-((4-methylpiperazin-1-yl)methyl)-6-oxopyrimido[4,5-c]isoquinolin-5(6H)-yl)-N-methylcyclohexane-1-carboxamide] | 68.8 |
| CCCCNc1ncc2c3ccc(CN4CCN(C)CC4)cc3c(=O)n([C@H]3CC[C@H](C(=O)NCC(F)(F)F)CC3)c2n1 [Compound 139, trans-4-(3-(Butylamino)-8-((4-methylpiperazin-1-yl)methyl)-6-oxopyrimido[4,5-c]isoquinolin-5(6H)-yl)-N-(2,2,2-trifluoroethyl)cyclohexane-1-carboxamide] | 134 |
| CCCCNc1ncc2c3ccc(CN4CCN(C)CC4)cc3c(=O)n([C@H]3CC[C@H](C(=O)NC4COC4)CC3)c2n1 [Compound 140, trans-4-(3-(Butylamino)-8-((4-methylpiperazin-1-yl)methyl)-6-oxopyrimido[4,5-c]isoquinolin-5(6H)-yl)-N-(oxetan-3-yl)cyclohexane-1-carboxamide] | 147 |
| CCCCNc1ncc2c3ccc(CN4CCN(C)CC4)cc3c(=O)n([C@H]3CC[C@H](C(=O)NCC4CC4)CC3)c2n1 [Compound 141, trans-4-(3-(Butylamino)-8-((4-methylpiperazin-1-yl)methyl)-6-oxopyrimido[4,5-c]isoquinolin-5(6H)-yl)-N-(cyclopropylmethyl)cyclohexane-1-carboxamide] | 187 |
| CCCCNc1ncc2c3ccc(CN4CCN(C)CC4)cc3c(=O)n([C@H]3CC[C@H](C(=O)N(C)C)CC3)c2n1 [Compound 142, trans-4-(3-(Butylamino)-8-((4-methylpiperazin-1-yl)methyl)-6-oxopyrimido[4,5-c]isoquinolin-5(6H)-yl)-N,N-dimethylcyclohexane-1-carboxamide] | 115 |
| O=c1c2cc(CN3CCC(c4nnn[nH]4)CC3)ccc2c2cnc(NCC3CC3)nc2n1C1CCC(O)CC1 (stereo not shown) [Compound 143, 8-((4-(1H-tetrazol-5-yl)piperidin-1-yl)methyl)-3-((cyclopropylmethyl)amino)-5-((1s,4s)-4-hydroxycyclohexyl)pyrimido[4,5-c]isoquinolin-6(5H)-one] | 13500 |
| CCOC1CCN(Cc2ccc3c(c2)c(=O)n(C2CCC(O)CC2)c2nc(NCC4CC4)ncc32)CC1 (stereo not shown) [Compound 144, 3-((cyclopropylmethyl)amino)-8-((4-ethoxypiperidin-1-yl)methyl)-5-((1s,4s)-4-hydroxycyclohexyl)pyrimido[4,5-c]isoquinolin-6(5H)-one] | 57.3 |
| CC1(O)CCN(Cc2ccc3c(c2)c(=O)n(C2CCC(O)CC2)c2nc(NCC4CC4)ncc32)CC1 (stereo not shown) [Compound 145, 3-((cyclopropylmethyl)amino)-8-((4-hydroxy-4-methylpiperidin-1-yl)methyl)-5-((1s,4s)-4-hydroxycyclohexyl)pyrimido[4,5-c]isoquinolin-6(5H)-one] | 25.7 |
| CN1CCN(Cc2ccc3c(c2)c(=O)n(C2CCC(C)(C)CC2)c2nc(NCC4CCC4)ncc32)CC1 [Compound 146] | 7.4 |

Reference: patent US11110082B2, “Tyrosine kinase inhibitors” (Rigel Pharmaceuticals, Inc., priority 2016, dated 2021)
